Results: publication PMC9496346, “Controversial Role of Transferrin in the Transport of Ruthenium Anticancer Drugs” (Biomolecules, 2022)
Marks after values point to notes of the source that are not given here.

Tests used:
[1] = system: T1, recombinant human transferrin receptor 1 (TfR1); experiment: BLI of Tf–TfR1 binding in dilute human serum pre-treated with metal complexes; settings: serum incubated with 100 μM Ru complex or 60 μM Fe(III) as citrate
T1 construct: extracellular domain (Cyst89-Phe760), (His)6-tagged at the N-terminus; purchased Sino Biological, Beijing, China (TfR1); Sigma (human serum, Cat. No. H4522, as source of Tf) 11020-H07H
Experimental: The effects of Ru complexes on the Tf cycle were determined by BLI using previously developed protocols. The instrument used was a single-channel BLItz analyser (ForteBio, Menlo Park, CA, USA) with a tube holder (250 µL solution volume) and Ni(II)–nta coated optical probes held at 295 ± 1 K. Measurements used the Advanced Kinetics mode. […] Solutions of metal–Tf adducts (typical final Tf concentrations 150 nM or 1.0 µM) were prepared in the binding buffer (Section 2.1). The pH 7.4 binding buffer was used for Tf binding and dissociation from the probe, and the pH 5.6 buffer (Section 2.1) was used to mimic the endosomal step of the Tf cycle. Metal–Tf solutions (A1–A9 in Table 1) were diluted 100–400-fold, cell culture media were diluted 30-fold, and human serum samples were diluted 200-fold with the binding buffer immediately before the BLI measurements. All BLI data were background corrected by using data from buffer only runs with the same TfR1-loaded optical probe. Consistent BLI results were obtained in at least two independent measurements, using different probes and different batches of Tf solutions. Calculations of the Tf–TfR1 binding constants were performed using the 1:1 binding model (BLItz software, Version 1.1, Forte-Bio 2013), which can be used as a reasonable approximation of the physiological 2:2 Tf–TfR1 binding mechanism at low Tf concentrations. […]
(b) BLI response curves for dilute human serum samples in the presence or absence of metal complexes. Intact commercial human serum (Sigma H4522) was incubated with Fe(III)-citrate (60 µM) or with Ru complexes (100 µM) for 4 h at 310 K, then diluted 200-fold (to [Tf] ~ 150 nM) with the binding buffer (20 mM HEPES, 25 mM NaHCO3, 140 mM NaCl, pH = 7.4), and analyzed with the TfR1-loaded BLI probe. Designations of the steps in Tf cycle (A–D) correspond to those in Figure 1d-f, main text. Calculated KD values (1:1 binding model, BLItz software) were as follows: 8.0 nM (serum + Fe(III) citrate); or 28 ± 2 nM (serum in the presence or absence of Ru complexes). Typical anticancer Ru complexes, NAMI-A, KP1019 and RAPTA-C, were synthesized and characterized previously in the Lay group.
(1 picture or pasted object on this page, not shown here)

[2] = Particle size (protein aggregation) by dynamic light scattering; format: physicochemical; settings: DLS, 298 K; 10 μM Tf in binding buffer pH 7.4
Experimental: Protein samples (0.10 mM) were diluted 10-fold with binding buffer before the measurements. The measured parameters were the averages of 12–15 scans (scan time, 3 s). […] Analysis of Tf crystal structures that are available in the public domain from the Protein Data Bank (PDB) was performed with PyMOL software (version 2.1.1, Schrodinger LLC 2021, New York, NY, USA).

HepG2 cells [3] = experiment: Cellular Fe content of HepG2 cells (ICP-MS); format: cell-based, human; settings: HepG2, 24 h; 60 μM Ru, added HSA or Tf 30 μM; serum-free DMEM with ~15 μM BSA
Experimental: (§1) Human hepatoma (HepG2) cells were originally received from the American Type Culture Collection (ATCC, Cat. No. HB-8065) and cultured as described previously. This cell line was used for Tf-dependent metal uptake studies because of the high expression levels of human TfR1 [43]. For treatments, the cells were grown to confluence in 24-well plates, using Advanced DMEM (Dulbecco’s modified Eagle’s minimal essential medium, Invitrogen Cat. No. 12491-015), supplemented with L-glutamine (2.0 mM), antibiotic-antimycotic mixture (100 mg mL^−1 penicillin, 100 mg mL^−1 steptomycin and 0.25 mg mL^−1 amphotericin B) and fetal calf serum (heat-inactivated, 2% v/v). Confluent cell layers were washed with serum-free treatment medium (DMEM, Invitrogen Cat. No. 19938-025), supplemented with glutamine, antibiotic-antimycotic mixture and 1.0 mg mL^−1 AlbuMax (Gibco Cat. No. 11020-021). […] After washing, the wells were filled with the treatment medium containing metal additions (detailed in B1–B9 of Table 1). The treatment media were sterilized by filtration through 0.2 µm membrane filters, and pre-equilibrated for 24 h at 310 K and 5% CO2 prior to the addition to cells, except for sample B1 that was used immediately after preparation. All the treatments were performed in triplicate, using random well positions to avoid experimental bias.
(§2) After 24 h incubation with the treatment media (B1–B9 in Table 1), the medium from each well was collected for the determination of Ru–protein binding and BLI analyses, and the wells were washed twice with PBS (0.50 mL/well). […]
(§3) The values of metal uptake were normalized using protein content in cell lysates. For protein determination, Bradford reagent (Sigma Cat. No B6916; 98 µL) was mixed with a small aliquot (2.0 µL) of each cell lysate, and the absorbance at 600 nm was measured using a Victor V3 plate reader. […] The test and calibration samples were analyzed in triplicate. […]

[4] = system: protein in cell culture medium; experiment: Ru–protein binding in cell culture medium (gel filtration, GFAAS); format: in vitro ADME; settings: medium after 24 h cell treatment; gel filtration >6 kDa; 60 μM Ru, added HSA or Tf 30 μM, ~15 μM BSA
Experimental: An aliquot (50 µL) of cell culture medium from each well was passed through a separate Bio-Rad P6 centrifugal gel filtration column that was pre-saturated with PBS, according to manufacturer’s instructions. The eluants (50 ± 5 µL volume) contained protein-bound Ru fractions (>6 kDa molecular mass). The protein recovery, measured by Bradford assays, exceeded 95%. Another 50 µL sample of each medium was taken into separate tubes. Both the original and gel-filtered media samples were digested with 0.20 mL of 65% (v/v) HNO3 for 24 h. The digests were diluted with 0.75 mL of 0.10 M HCl, and the Ru content in the samples was determined by GFAAS. The percentage of protein binding was determined from the ratio of Ru content in the gel-filtered and original media samples [30, 31].

HepG2 cells [5] = experiment: Toxicity to HepG2 cells judged from cell morphology during treatment; format: cell-based, human; settings: HepG2, 24 h incubation, 60 μM Ru
Experimental: as §1, with “All the treatments were performed in triplicate, using random well positions to avoid experimental bias.” left out
Cellular Fe levels were also measured to control the Tf-mediated Fe uptake. […]

HepG2 cells [6] = experiment: Cellular Ru uptake by HepG2 cells (ICP-MS); format: cell-based, human; settings: HepG2, 24 h; 60 μM Ru, added HSA or Tf 30 μM; serum-free DMEM with ~15 μM BSA; media pre-equilibrated 24 h except B1
Experimental: as §1, §2, §3

[7] = system: T2, recombinant human transferrin receptor 1 (TfR1); experiment: BLI of Tf–TfR1 binding in dilute cell culture media after uptake experiments; settings: 1.0 µM human Tf, 295 K; serum-free DMEM with 1.0 mg mL−1 BSA collected after HepG2 uptake experiments, diluted 30-fold; 1:1 binding model
T2 construct: extracellular domain (Cyst89-Phe760), (His)6-tagged at the N-terminus; purchased Sino Biological, Beijing, China (TfR1)
Experimental: The effects of Ru complexes on the Tf cycle were determined by BLI using previously developed protocols. The instrument used was a single-channel BLItz analyser (ForteBio, Menlo Park, CA, USA) with a tube holder (250 µL solution volume) and Ni(II)–nta coated optical probes held at 295 ± 1 K. Measurements used the Advanced Kinetics mode. […] Solutions of metal–Tf adducts (typical final Tf concentrations 150 nM or 1.0 µM) were prepared in the binding buffer (Section 2.1). The pH 7.4 binding buffer was used for Tf binding and dissociation from the probe, and the pH 5.6 buffer (Section 2.1) was used to mimic the endosomal step of the Tf cycle. Metal–Tf solutions (A1–A9 in Table 1) were diluted 100–400-fold, cell culture media were diluted 30-fold, and human serum samples were diluted 200-fold with the binding buffer immediately before the BLI measurements. All BLI data were background corrected by using data from buffer only runs with the same TfR1-loaded optical probe. Consistent BLI results were obtained in at least two independent measurements, using different probes and different batches of Tf solutions. Calculations of the Tf–TfR1 binding constants were performed using the 1:1 binding model (BLItz software, Version 1.1, Forte-Bio 2013), which can be used as a reasonable approximation of the physiological 2:2 Tf–TfR1 binding mechanism at low Tf concentrations.
(a) BLI response curves for 1.0 µM of human Tf at 295 K in dilute cell culture media after Ru uptake experiments by HepG2 cells (Section 3.2 in the main text). Media (serum-free DMEM, containing 1.0 mg mL−1 BSA as a background protein, as well as KP1019 and/or Tf, as shown in the figure legend), were collected after the end of uptake experiments, then were diluted 30-fold with buffer (20 mM HEPES + 25 mM NaHCO3 + 140 mM NaCl, pH = 7.4) and applied to TfR1-loaded BLI probe. Designations of the steps in Tf cycle (A–D) correspond to those in Figure 1d-f, main text. Calculated KD values (1:1 binding model, BLItz software) were as […]

## CS(C)=O.[Cl-].[Cl-].[Cl-].[Cl-].[Ru+3].c1c[nH+]c[nH]1.c1c[nH]cn1 [NAMI-A, (ImH)[Ru^IIICl4(Im)(S-dmso)]]
[1]
  Effect on Tf–TfR1 binding in whole human serum: did not have any effect

## monoFeTf: apoTf + 1.0 eq. [Fe^III(nta)2]^3−; mixture of FeCTf and FeNTf forms
[2]
  Mean Particle Size: 7 ± 1 nm

## Fe(III) citrate
[1]
  Effect on Tf–TfR1 binding in whole human serum: significantly increased the binding affinity

## Ru2Tf: apoTf + 2.0 eq. [Ru^III(nta)2]^3−; Ru(III) bound to Fe(III) sites of transferrin
HepG2 cells [3]
  Fe Content (cellular metal content): 1.9 ± 0.7 nmol per mg protein
[2]
  Mean Particle Size: 7 ± 1 nm
[4]
  % Ru–Protein (proportion of protein-bound Ru in cell culture medium): 74 ± 3 ^g molar %

## [Cl-].[Cl-].[Cl-].[Cl-].[Ru+3].c1ccc2[nH+][nH]cc2c1.c1ccc2[nH]ncc2c1.c1ccc2[nH]ncc2c1 [KP1019 fresh]
HepG2 cells [5]
  Toxicity judged from cell morphology: significant cell detachment
HepG2 cells [3]
  Fe Content (cellular metal content): 11.2 ± 6.5 ^f nmol per mg protein
[4]
  % Ru–Protein (proportion of protein-bound Ru in cell culture medium): 46 ± 4 molar %
HepG2 cells [6]
  Ru Uptake (cellular metal content): 6.6 ± 2.8 ^e nmol per mg protein

## O=C([O-])CN(CC(=O)[O-])CC(=O)[O-].O=C([O-])CN(CC(=O)[O-])CC(=O)[O-].[Ru+3] [[Ru(nta)2]^3−, [Ru^III(nta)2]^3−]
HepG2 cells [3]
  Fe Content (cellular metal content): 1.4 ± 0.4 nmol per mg protein
[4]
  % Ru–Protein (proportion of protein-bound Ru in cell culture medium): 2 ± 1 ^g molar %
HepG2 cells [6]
  Ru Uptake (cellular metal content): 0.09 ± 0.03 nmol per mg protein

## apoTf: human apo transferrin
[2]
  Mean Particle Size: 7 ± 1 nm
[7]
  Kd: 32 nM

## Cc1ccc(C(C)C)cc1.[Cl][Ru]([Cl])[PH]12CN3CN(CN(C3)C1)C2 [RAPTA-C, [Ru^II(η^6-p-cymene)Cl2(pta)]]
[1]
  Effect on Tf–TfR1 binding in whole human serum: did not have any effect

## Fe2Tf: fully Fe(III)-saturated human transferrin
[2]
  Mean Particle Size: 7 ± 2 nm
[7]
  Kd: 22 nM

## RuFeTf: apoTf + 1.0 eq. [Fe^III(nta)2]^3−, then 1.0 eq. [Ru^III(nta)2]^3−; mixed Ru(III)–Fe(III)–Tf adduct
[2]
  Mean Particle Size: 6.5 ± 1 nm
